Experiments:
Assay in all cases: KinomeScan kinase profiling
Type in all cases: binding
EGFR (S752-1759del) = molecular target: T1, EGFR (S752-1759del) (Homo sapiens, UniProt P00533, DEL752-759)
T1 construct: host or cells: E. coli host derived from BL21, T7 phage lysate
Procedure, shortened: (§1)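 Kinases were expressed as T7 phage fusions in a BL21-derived E. coli host and the cleared lysates were used. Ligand beads were blocked with biotin and buffer (1% BSA, 0.05% Tween 20, 1 mM DTT). Compounds came from 40× DMSO stocks, and phage in the eluates was titred by qPCR.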

BRK = molecular target: T2, BRK (Homo sapiens, UniProt Q13882)
T2 construct: purchased Ambit Biosciences Corp (KinomeScan); host or cells: E. coli host derived from the BL21 strain, T7 phage
T2 sequence (Q13882 whole entry): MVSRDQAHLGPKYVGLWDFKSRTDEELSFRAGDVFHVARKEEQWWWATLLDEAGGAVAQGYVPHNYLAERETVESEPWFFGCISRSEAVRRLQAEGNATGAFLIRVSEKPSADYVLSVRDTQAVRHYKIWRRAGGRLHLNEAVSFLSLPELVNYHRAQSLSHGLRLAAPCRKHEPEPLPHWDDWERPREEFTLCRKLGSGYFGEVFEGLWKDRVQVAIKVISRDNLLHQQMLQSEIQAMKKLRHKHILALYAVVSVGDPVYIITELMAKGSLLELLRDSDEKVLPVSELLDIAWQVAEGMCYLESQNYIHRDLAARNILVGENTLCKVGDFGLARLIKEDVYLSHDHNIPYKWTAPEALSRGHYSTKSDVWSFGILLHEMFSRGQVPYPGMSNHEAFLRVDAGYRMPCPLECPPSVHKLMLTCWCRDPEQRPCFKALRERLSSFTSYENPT
Procedure, shortened: as §1

TAOK3 = molecular target: T3, TAOK3 (Homo sapiens, UniProt Q9H2K8)
T3 construct: host or cells: E. coli host derived from the BL21 strain, T7 phage lysate
Procedure, shortened: as §1

ACVR1 = molecular target: T4, ACVR1 (Homo sapiens, UniProt Q04771)
T4 construct: host or cells: E. coli host derived from BL21 (T7 phage lysate)
Procedure, shortened: as §1

DRAK2 = molecular target: T5, DRAK2 (Homo sapiens, UniProt O94768)
T5 construct: purchased Ambit Biosciences Corp (KinomeScan); host or cells: T7 phage in E. coli host derived from BL21
T5 sequence (O94768 whole entry): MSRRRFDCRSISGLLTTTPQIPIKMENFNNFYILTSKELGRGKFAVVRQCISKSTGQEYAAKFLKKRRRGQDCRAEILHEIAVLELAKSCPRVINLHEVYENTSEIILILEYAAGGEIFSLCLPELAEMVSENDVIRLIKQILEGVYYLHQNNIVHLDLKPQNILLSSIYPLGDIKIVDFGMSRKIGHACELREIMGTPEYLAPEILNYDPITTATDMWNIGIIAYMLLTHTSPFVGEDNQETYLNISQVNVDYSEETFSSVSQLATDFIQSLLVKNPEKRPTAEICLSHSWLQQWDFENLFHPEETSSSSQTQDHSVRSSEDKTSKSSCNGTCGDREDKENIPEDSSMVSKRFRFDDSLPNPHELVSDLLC
Procedure, shortened: as §1

[1] = molecular target: T6, RPS6KA2 (Kin.Dom.-2-C-terminal) (Homo sapiens, UniProt Q15349)
T6 construct: RPS6KA2 (Kin.Dom.-2-C-terminal); host or cells: E. coli host derived from BL21, T7 phage lysate
T6 sequence (Q15349 415-672 limits assumed): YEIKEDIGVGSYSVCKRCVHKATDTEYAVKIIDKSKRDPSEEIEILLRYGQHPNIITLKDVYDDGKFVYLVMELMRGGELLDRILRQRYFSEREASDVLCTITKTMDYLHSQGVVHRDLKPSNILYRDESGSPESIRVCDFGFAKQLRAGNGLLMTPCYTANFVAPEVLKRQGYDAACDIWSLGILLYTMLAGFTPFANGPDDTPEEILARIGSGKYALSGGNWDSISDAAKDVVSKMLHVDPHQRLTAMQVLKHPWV
Procedure, shortened: as §1

CAMK2D = molecular target: T7, CAMK2D (Homo sapiens, UniProt Q13557)
T7 construct: purchased Ambit Biosciences Corp (KinomeScan); host or cells: E. coli host derived from the BL21 strain, T7 phage
Procedure, shortened: as §1

SIK2 = molecular target: T8, SIK2 (Homo sapiens, UniProt Q9H0K1)
T8 construct: host or cells: E. coli host derived from the BL21 strain, T7 phage lysate
Procedure, shortened: as §1

EPHA3 = molecular target: T9, EPHA3 (Homo sapiens, UniProt P29320)
T9 construct: host or cells: E. coli host derived from BL21, T7 phage lysate
Procedure, shortened: as §1

TRKB = molecular target: T10, TRKB (Homo sapiens, UniProt Q16620)
T10 construct: purchased Ambit Biosciences Corp (KinomeScan); host or cells: E. coli host derived from the BL21 strain (T7 phage lysate)
Procedure, shortened: as §1

TNIK = molecular target: T11, TNIK (Homo sapiens, UniProt Q9UKE5)
T11 construct: purchased Ambit Biosciences Corp (KinomeScan); host or cells: E. coli host derived from the BL21 strain (T7 phage lysate)
Procedure, shortened: as §1

KIT (V559D, T670I) = molecular target: T12, KIT (V559D, T670I) (Homo sapiens, UniProt P10721, T670I/V559D)
T12 construct: host or cells: T7 phage in E. coli host derived from BL21
T12 sequence (P10721 26-976 V559D/T670I): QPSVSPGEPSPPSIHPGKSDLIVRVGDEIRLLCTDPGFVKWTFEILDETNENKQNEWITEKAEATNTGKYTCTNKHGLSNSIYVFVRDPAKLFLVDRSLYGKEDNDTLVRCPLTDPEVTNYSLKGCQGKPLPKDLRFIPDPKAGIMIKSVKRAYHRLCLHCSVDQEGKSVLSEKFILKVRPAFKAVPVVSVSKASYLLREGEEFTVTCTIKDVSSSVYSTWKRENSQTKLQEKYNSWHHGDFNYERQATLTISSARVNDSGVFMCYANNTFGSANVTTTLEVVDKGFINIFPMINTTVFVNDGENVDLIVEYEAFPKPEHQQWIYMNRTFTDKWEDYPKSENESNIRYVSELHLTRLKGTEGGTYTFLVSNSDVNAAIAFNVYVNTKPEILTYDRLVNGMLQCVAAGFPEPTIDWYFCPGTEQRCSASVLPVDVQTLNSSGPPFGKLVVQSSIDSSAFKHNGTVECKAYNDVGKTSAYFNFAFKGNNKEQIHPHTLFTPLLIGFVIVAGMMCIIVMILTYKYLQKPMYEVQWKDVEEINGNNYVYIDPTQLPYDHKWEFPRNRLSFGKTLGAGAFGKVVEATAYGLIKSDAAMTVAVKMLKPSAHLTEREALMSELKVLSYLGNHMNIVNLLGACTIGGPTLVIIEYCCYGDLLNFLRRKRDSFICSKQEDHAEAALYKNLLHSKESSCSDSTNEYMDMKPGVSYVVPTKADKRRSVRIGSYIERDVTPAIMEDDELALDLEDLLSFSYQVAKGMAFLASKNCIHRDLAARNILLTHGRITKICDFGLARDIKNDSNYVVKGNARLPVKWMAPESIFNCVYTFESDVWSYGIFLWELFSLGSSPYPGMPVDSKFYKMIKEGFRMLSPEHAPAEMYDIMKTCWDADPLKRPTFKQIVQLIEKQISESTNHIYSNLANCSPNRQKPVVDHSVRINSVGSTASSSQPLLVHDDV
Procedure, shortened: as §1

KIT (D816V) = molecular target: T13, KIT (D816V) (Homo sapiens, UniProt P10721, D816V)
T13 construct: host or cells: T7 phage in E. coli host derived from BL21
T13 sequence (P10721 26-976 D816V): as the sequence (P10721 26-976 V559D/T670I) above, with D534V, I645T, D791V counted along it
Procedure, shortened: as §1

PIM3 = molecular target: T14, PIM3 (Homo sapiens, UniProt Q86V86)
T14 construct: purchased Ambit Biosciences Corp (KinomeScan); host or cells: E. coli host derived from BL21, infected with T7 phage
Procedure, shortened: as §1

AKT3 = molecular target: T15, AKT3 (Homo sapiens, UniProt Q9Y243)
T15 construct: host or cells: E. coli host derived from BL21 (T7 phage lysate)
Procedure, shortened: as §1

TNK1 = molecular target: T16, TNK1 (Homo sapiens, UniProt Q13470)
T16 construct: purchased Ambit Biosciences Corp (KinomeScan); host or cells: E. coli host derived from the BL21 strain (T7 phage lysate)
T16 sequence (Q13470 whole entry): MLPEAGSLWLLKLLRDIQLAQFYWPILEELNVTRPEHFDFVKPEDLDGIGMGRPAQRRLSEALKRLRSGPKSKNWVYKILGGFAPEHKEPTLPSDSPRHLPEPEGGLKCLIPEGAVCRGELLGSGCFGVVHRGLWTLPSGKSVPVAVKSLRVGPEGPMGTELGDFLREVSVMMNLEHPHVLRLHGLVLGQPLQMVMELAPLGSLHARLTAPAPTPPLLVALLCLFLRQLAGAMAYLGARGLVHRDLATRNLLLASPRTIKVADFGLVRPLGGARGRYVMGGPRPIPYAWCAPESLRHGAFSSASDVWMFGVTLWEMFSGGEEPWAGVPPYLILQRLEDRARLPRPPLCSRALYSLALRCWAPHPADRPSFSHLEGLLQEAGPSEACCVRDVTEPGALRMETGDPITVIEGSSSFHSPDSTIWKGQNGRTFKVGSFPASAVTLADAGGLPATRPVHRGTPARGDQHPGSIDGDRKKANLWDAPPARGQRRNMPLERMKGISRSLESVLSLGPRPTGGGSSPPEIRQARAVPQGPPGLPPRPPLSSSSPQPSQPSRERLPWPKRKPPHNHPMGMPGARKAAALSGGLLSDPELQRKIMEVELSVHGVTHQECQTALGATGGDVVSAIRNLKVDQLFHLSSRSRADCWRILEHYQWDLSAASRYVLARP
Procedure, shortened: as §1

ERK1 = molecular target: T17, ERK1 (Homo sapiens, UniProt P27361)
T17 construct: host or cells: E. coli host derived from BL21, T7 phage lysate
T17 sequence (P27361 whole entry): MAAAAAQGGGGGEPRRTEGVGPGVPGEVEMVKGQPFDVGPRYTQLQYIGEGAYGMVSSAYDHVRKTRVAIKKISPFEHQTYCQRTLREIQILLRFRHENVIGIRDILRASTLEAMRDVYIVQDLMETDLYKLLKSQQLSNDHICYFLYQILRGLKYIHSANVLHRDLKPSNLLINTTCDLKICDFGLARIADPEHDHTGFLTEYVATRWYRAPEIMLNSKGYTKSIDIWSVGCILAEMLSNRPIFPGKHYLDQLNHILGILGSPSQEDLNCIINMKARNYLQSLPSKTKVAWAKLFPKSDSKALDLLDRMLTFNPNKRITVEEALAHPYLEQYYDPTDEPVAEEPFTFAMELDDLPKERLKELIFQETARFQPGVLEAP
Procedure, shortened: as §1

PKN2 = molecular target: T18, PKN2 (Homo sapiens, UniProt Q16513)
T18 construct: purchased Ambit Biosciences Corp (KinomeScan); host or cells: E. coli host derived from BL21, infected with T7 phage
Procedure, shortened: as §1

ROCK2 = molecular target: T19, ROCK2 (Homo sapiens, UniProt O75116)
T19 construct: host or cells: E. coli host derived from BL21, T7 phage lysate
Procedure, shortened: as §1

BMX = molecular target: T20, BMX (Homo sapiens, UniProt P51813)
T20 construct: purchased Ambit Biosciences Corp (KinomeScan); host or cells: E. coli host derived from the BL21 strain, T7 phage
T20 sequence (P51813 whole entry): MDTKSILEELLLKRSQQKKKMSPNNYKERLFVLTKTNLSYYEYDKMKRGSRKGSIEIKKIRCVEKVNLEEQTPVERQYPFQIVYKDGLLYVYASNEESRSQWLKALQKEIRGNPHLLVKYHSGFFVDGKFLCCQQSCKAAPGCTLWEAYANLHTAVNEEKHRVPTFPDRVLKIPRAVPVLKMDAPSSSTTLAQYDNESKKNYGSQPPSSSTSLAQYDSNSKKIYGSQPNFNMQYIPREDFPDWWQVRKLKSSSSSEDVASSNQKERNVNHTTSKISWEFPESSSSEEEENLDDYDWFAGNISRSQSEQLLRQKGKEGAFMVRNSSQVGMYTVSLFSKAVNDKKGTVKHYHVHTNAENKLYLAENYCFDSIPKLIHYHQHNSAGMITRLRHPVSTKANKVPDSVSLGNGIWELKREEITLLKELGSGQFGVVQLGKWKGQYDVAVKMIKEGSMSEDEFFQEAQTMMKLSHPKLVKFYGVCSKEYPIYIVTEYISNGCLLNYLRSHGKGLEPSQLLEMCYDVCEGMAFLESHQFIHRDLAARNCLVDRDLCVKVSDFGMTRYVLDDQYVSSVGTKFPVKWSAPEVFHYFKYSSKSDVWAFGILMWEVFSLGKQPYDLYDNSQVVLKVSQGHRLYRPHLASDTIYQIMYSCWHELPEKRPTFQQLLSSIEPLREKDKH
Procedure, shortened: as §1

[2] = molecular target: T21, RPS6KA4 (Kin.Dom.-2-C-terminal) (Homo sapiens, UniProt O75676)
T21 construct: RPS6KA4(KIN.DOM.2); host or cells: E. coli host derived from BL21, T7 phage lysate
T21 sequence (O75676 411-674 limits assumed): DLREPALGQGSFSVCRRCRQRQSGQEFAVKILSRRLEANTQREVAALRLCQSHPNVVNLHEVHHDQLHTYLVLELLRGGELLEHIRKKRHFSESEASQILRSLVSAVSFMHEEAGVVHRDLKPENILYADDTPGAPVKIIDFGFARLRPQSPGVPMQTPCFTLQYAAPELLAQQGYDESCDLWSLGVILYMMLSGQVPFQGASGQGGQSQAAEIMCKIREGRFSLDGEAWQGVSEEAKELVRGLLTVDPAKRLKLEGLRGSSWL
Procedure, shortened: as §1

PIP5K1A = molecular target: T22, PIP5K1A (Homo sapiens, UniProt Q99755)
T22 construct: purchased Ambit Biosciences Corp (KinomeScan); host or cells: E. coli host derived from BL21, infected with T7 phage
T22 sequence (Q99755 whole entry): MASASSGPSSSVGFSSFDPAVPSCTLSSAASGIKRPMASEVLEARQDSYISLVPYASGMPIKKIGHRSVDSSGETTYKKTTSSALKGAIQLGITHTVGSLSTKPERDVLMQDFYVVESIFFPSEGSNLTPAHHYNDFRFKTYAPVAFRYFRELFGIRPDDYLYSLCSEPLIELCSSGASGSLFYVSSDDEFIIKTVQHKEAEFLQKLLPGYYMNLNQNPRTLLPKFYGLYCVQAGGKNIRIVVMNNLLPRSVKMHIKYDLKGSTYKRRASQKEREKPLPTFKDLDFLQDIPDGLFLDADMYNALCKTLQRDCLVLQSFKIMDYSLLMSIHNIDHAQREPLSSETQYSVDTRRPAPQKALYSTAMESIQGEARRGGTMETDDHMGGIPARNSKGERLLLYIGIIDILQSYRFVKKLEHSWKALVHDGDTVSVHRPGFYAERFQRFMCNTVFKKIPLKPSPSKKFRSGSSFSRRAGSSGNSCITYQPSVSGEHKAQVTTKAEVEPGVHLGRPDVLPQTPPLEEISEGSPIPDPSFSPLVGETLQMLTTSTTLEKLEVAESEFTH
Procedure, shortened: as §1

C#Cc1cccc(Nc2ncnc3cc(OC)c(OCCCN4CCOCC4)cc23)c1 [NRC-2694, N-(3-ethylnylphenyl)-7-methoxy-6-[3-(4-morpholinyl)propoxy]-4-quinazolinamine] was tested, and the “% Ctrl @ 10000 nM” value (EGFR (S752-1759del)) was 0 % Ctrl, the “% Ctrl @ 10000 nM” value (BRK) was 46 % Ctrl and the “% Ctrl @ 10000 nM” value (TAOK3) was 76 % Ctrl. For the same molecule, the “% Ctrl @ 10000 nM” value (ACVR1) was 61 % Ctrl, the “% Ctrl @ 10000 nM” value (DRAK2) was 58 % Ctrl and the “% Ctrl @ 10000 nM” value [1] was 78 % Ctrl. For the same molecule, the “% Ctrl @ 10000 nM” value (CAMK2D) was 35 % Ctrl, the “% Ctrl @ 10000 nM” value (SIK2) was 21 % Ctrl and the “% Ctrl @ 10000 nM” value (EPHA3) was 56 % Ctrl. For the same molecule, the “% Ctrl @ 10000 nM” value (TRKB) was 73 % Ctrl, the “% Ctrl @ 10000 nM” value (TNIK) was 17 % Ctrl and the “% Ctrl @ 10000 nM” value (KIT (V559D, T670I)) was 28 % Ctrl. The “% Ctrl @ 10000 nM” value (KIT (D816V)) was 17 % Ctrl, the “% Ctrl @ 10000 nM” value (PIM3) was 23 % Ctrl and the “% Ctrl @ 10000 nM” value (AKT3) was 66 % Ctrl. The “% Ctrl @ 10000 nM” value (TNK1) was 41 % Ctrl, the “% Ctrl @ 10000 nM” value (ERK1) was 98 % Ctrl and the “% Ctrl @ 10000 nM” value (PKN2) was 31 % Ctrl. The “% Ctrl @ 10000 nM” value (ROCK2) was 38 % Ctrl, the “% Ctrl @ 10000 nM” value (BMX) was 73 % Ctrl and the “% Ctrl @ 10000 nM” value [2] was 8.9 % Ctrl. The “% Ctrl @ 10000 nM” value (PIP5K1A) was 61 % Ctrl.

Source: patent US9050341B2, “Methods of treating drug resistant and other tumors by administering 6,7-dialkoxy quinazoline derivatives” (NATCO PHARMA LIMITED, priority 2009, dated 2015)
